What is called melting point is the temperature of the solid-liquid transition.

One data set concerns the target T1, mouse DGAT1 (Mus musculus, UniProt Q9Z2A7).
T1 construct: made in house; host or cells: insect cells (High Five, Sf9, Sf21, etc.), baculovirus expression system (Invitrogen)
T1 sequence (Q9Z2A7 1-498): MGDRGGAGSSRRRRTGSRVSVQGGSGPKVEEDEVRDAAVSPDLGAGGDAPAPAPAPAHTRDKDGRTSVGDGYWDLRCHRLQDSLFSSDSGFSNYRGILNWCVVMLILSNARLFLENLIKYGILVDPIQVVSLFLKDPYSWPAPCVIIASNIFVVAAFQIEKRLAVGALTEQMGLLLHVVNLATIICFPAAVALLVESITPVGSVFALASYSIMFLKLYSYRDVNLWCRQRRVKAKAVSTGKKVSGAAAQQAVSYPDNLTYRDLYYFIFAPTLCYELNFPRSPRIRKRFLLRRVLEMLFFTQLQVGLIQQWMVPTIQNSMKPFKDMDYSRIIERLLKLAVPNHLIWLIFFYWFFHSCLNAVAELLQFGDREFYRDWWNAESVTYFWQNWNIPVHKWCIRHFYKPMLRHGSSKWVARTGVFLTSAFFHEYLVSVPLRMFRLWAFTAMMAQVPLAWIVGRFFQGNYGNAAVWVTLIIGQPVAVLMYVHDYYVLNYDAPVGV
In words: DGAT1 inhibitory effect test (microsome fraction, [14C]-oleoyl-CoA, triglyceride radioactivity by TLC). Particulars: 0.5 h; concentration of the test compound 0.1 μg/ml; mouse DGAT1 microsomes, 23° C., 30 minutes; read-out: Inhibitory ratio. The format is biochemical. The method in brief:
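Inhibition was scored from radiolabelled triglyceride separated by TLC, relative to vehicle and net of a 0-min background. The reaction ran for 30 min at room temperature (23 °C) in Tris-HCl pH 8.0 with MgCl2, BSA and Triton X-100. Substrates were 30 μM [14C]-oleoyl-CoA and 0.5 mM dioleoylglycerol, with mouse DGAT1 microsomes from baculovirus-infected insect cells as enzyme.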

In turn, `COc1cccc(NC(=O)Nc2ccc(N3CCN(C(=O)Nc4ccc(OCCO)cc4C(F)(F)F)CC3)cc2)c1OC` [Example 247, 4-{4-[3-(2,3-dimethoxy-phenyl)-ureido]-phenyl}-piperazine-1-carboxylic acid [4-(2-hydroxy-ethoxy)-2-trifluoromethyl-phenyl]-amide] returned a melting point of 135 to 138 °C. Moreover, the inhibition at 0.1 µg/mL at mouse DGAT1 was at least 50%.

For the molecule `COc1ccc(C)cc1NC(=O)Nc1ccc(N2CCN(C(=O)Nc3ccc(OCCO)cc3Cl)CC2)cc1` [Example 248, 4-{4-[3-(2-methoxy-5-methyl-phenyl)-ureido]-phenyl}-piperazine-1-carboxylic acid [2-chloro-4-(2-hydroxy-ethoxy)-phenyl]-amide], the melting point was in the range of 152 to 154 °C. For the same molecule, the inhibition at 0.1 µg/mL at mouse DGAT1 is at least 50%.

For the molecule `COc1cccc(NC(=O)Nc2ccc(N3CCN(C(=O)Nc4ccc(OCCO)cc4Cl)CC3)cc2)c1` [Example 249, 4-{4-[3-(3-methoxy-phenyl)-ureido]-phenyl}-piperazine-1-carboxylic acid [2-chloro-4-(2-hydroxy-ethoxy)-phenyl]-amide], the melting point is 198 to 201 °C. The inhibition at 0.1 µg/mL on mouse DGAT1 is at least 50%.

Turning to `COc1cc(NC(=O)Nc2ccc(N3CCN(C(=O)Nc4ccc(OCCO)cc4Cl)CC3)cc2)cc(OC)c1` [Example 250, 4-{4-[3-(3,5-dimethoxy-phenyl)-ureido]-phenyl}-piperazine-1-carboxylic acid [2-chloro-4-(2-hydroxy-ethoxy)-phenyl]-amide], the melting point lay in the range of 114 to 116 °C. For the same molecule, the inhibition at 0.1 µg/mL on mouse DGAT1 was at least 50%.

`COc1ccccc1NC(=O)Nc1ccc(N2CCN(C(=O)Nc3ccc(OCCO)cc3Cl)CC2)cc1` [Example 251, 4-{4-[3-(2-methoxy-phenyl)-ureido]-phenyl}-piperazine-1-carboxylic acid [2-chloro-4-(2-hydroxy-ethoxy)-phenyl]-amide] registered a melting point of 134 to 136 °C. For the same molecule, at mouse DGAT1, the inhibition at 0.1 µg/mL was at least 50%.

Take `COc1ccc(C)cc1NC(=O)Nc1ccc(N2CCN(C(=O)Nc3ccc(OCCO)cc3Cl)C(C)C2)cc1` (stereo not drawn) [Example 252, 4-{4-[3-(2-methoxy-5-methyl-phenyl)-ureido]-phenyl}-2-methyl-piperazine-1-carboxylic acid [2-chloro-4-(2-hydroxy-ethoxy)-phenyl]-amide]: the melting point fell in the range of 129 to 131 °C. Moreover, on mouse DGAT1, the inhibition at 0.1 µg/mL is at least 50%.

`COc1ccc(C)cc1NC(=O)Nc1ccc(N2CCN(C(=O)Nc3ccc(OCCO)cc3Cl)CC2)c(F)c1` [Example 253, 4-{2-fluoro-4-[3-(2-methoxy-5-methyl-phenyl)-ureido]-phenyl}-piperazine-1-carboxylic acid [2-chloro-4-(2-hydroxy-ethoxy)-phenyl]-amide]: the melting point is 118 to 120 °C. The inhibition at 0.1 µg/mL on mouse DGAT1 is at least 50%.

Turning to `O=C(Nc1ccc(N2CCN(C(=O)Nc3ccc(OCCO)cc3Cl)CC2)cc1)Nc1ccccc1F` [Example 255, 4-{4-[3-(2-fluoro-phenyl)-ureido]-phenyl}-piperazine-1-carboxylic acid [2-chloro-4-(2-hydroxy-ethoxy)-phenyl]-amide], the melting point lay in the range of 213 to 217 °C. Also, the inhibition at 0.1 µg/mL on mouse DGAT1 is at least 50%.

With `COc1ccc(C)cc1NC(=O)Nc1ccc(C2=CCN(C(=O)Nc3ccc(OCCO)cc3Cl)CC2)cc1` [Example 256, 4-{4-[3-(2-methoxy-5-methyl-phenyl)-ureido]-phenyl}-3,6-dihydro-2H-pyridine-1-carboxylic acid [2-chloro-4-(2-hydroxy-ethoxy)-phenyl]-amide], the melting point was 117 to 120 °C. Moreover, the inhibition at 0.1 µg/mL on mouse DGAT1 is at least 50%.

`COc1ccc(C)cc1NC(=O)Nc1ccc(C2CCN(C(=O)Nc3ccc(OCCO)cc3Cl)CC2)cc1` [Example 257, 4-{4-[3-(2-methoxy-5-methyl-phenyl)-ureido]-phenyl}-piperidine-1-carboxylic acid [2-chloro-4-(2-hydroxy-ethoxy)-phenyl]-amide] came in with a melting point of 134 to 137 °C. Also, the inhibition at 0.1 µg/mL at mouse DGAT1 is at least 50%.

In turn, `COc1ccccc1NC(=O)Nc1ccc(C2=CCN(C(=O)Nc3ccc(OCCO)cc3Cl)CC2)cc1` [Example 258, 4-{4-[3-(2-methoxy-phenyl)-ureido]-phenyl}-3,6-dihydro-2H-pyridine-1-carboxylic acid [2-chloro-4-(2-hydroxy-ethoxy)-phenyl]-amide] had a melting point of 120 to 125 °C. The inhibition at 0.1 µg/mL on mouse DGAT1 was at least 50%.

Consider `COc1cc(NC(=O)Nc2ccc(C3=CCN(C(=O)Nc4ccc(OCCO)cc4Cl)CC3)cc2)cc(OC)c1` [Example 259, 4-{4-[3-(3,5-dimethoxy-phenyl)-ureido]-phenyl}-3,6-dihydro-2H-pyridine-1-carboxylic acid [2-chloro-4-(2-hydroxy-ethoxy)-phenyl]-amide], for which the melting point was 135 to 139 °C. Besides, on mouse DGAT1, the inhibition at 0.1 µg/mL is at least 50%.

`O=C(Nc1ccc(C2=CCN(C(=O)Nc3ccc(OCCO)cc3Cl)CC2)cc1)Nc1ccccc1F` [Example 260, 4-{4-[3-(2-fluoro-phenyl)-ureido]-phenyl}-3,6-dihydro-2H-pyridine-1-carboxylic acid [2-chloro-4-(2-hydroxy-ethoxy)-phenyl]-amide] showed a melting point of 173 to 178 °C. For the same molecule, the inhibition at 0.1 µg/mL at mouse DGAT1 was at least 50%.

Molecule `COc1ccccc1NC(=O)Nc1ccc(C2CCN(C(=O)Nc3ccc(OCCO)cc3Cl)CC2)cc1` [Example 261, 4-{4-[3-(2-methoxy-phenyl)-ureido]-phenyl}-piperidine-1-carboxylic acid [2-chloro-4-(2-hydroxy-ethoxy)-phenyl]-amide] gave a melting point of 166 to 168 °C. Besides, the inhibition at 0.1 µg/mL on mouse DGAT1 was at least 50%.

In the case of `COc1cc(NC(=O)Nc2ccc(C3CCN(C(=O)Nc4ccc(OCCO)cc4Cl)CC3)cc2)cc(OC)c1` [Example 262, 4-{4-[3-(3,5-dimethoxy-phenyl)-ureido]-phenyl}-piperidine-1-carboxylic acid [2-chloro-4-(2-hydroxy-ethoxy)-phenyl]-amide], the melting point was 101 to 105 °C. The inhibition at 0.1 µg/mL at mouse DGAT1 was at least 50%.

Regarding `O=C(Nc1ccc(C2CCN(C(=O)Nc3ccc(OCCO)cc3Cl)CC2)cc1)Nc1ccccc1F` [Example 263, 4-{4-[3-(2-fluoro-phenyl)-ureido]-phenyl}-piperidine-1-carboxylic acid [2-chloro-4-(2-hydroxy-ethoxy)-phenyl]-amide], the melting point was 166 to 171 °C. Further, the inhibition at 0.1 µg/mL at mouse DGAT1 was at least 50%.

Consider `CCOc1cccc(NC(=O)Nc2ccc(C3CCN(C(=O)Nc4ccc(OCCO)cc4Cl)CC3)cc2)c1` [Example 264, 4-{4-[3-(3-ethoxy-phenyl)-ureido]-phenyl}-piperidine-1-carboxylic acid [2-chloro-4-(2-hydroxy-ethoxy)-phenyl]-amide], for which the melting point fell in the range of 129 to 134 °C. Besides, the inhibition at 0.1 µg/mL on mouse DGAT1 is at least 50%.

With `COc1ccccc1NC(=O)Nc1ccc2c(c1)CCN(C(=O)Nc1ccc(OCCO)cc1Cl)C2` [Example 265, 6-[3-(2-methoxy-phenyl)-ureido]-3,4-dihydro-1 H-isoquinoline-2-carboxylic acid [2-chloro-4-(2-hydroxy-ethoxy)-phenyl]-amide], the melting point was in the range of 130 to 135 °C. At mouse DGAT1, the inhibition at 0.1 µg/mL is at least 50%.

Values taken from patent US20070249620A1, “Urea Derivative” (priority 2004, published 2007).
